# According to patent publication US9126999B2, “Tetrahydropyrazolopyrimidine compounds” (EISAI R&D MANAGEMENT CO., LTD., priority 2012, dated 2015):
# Entries after “also recorded” stand apart in the source; their conditions may differ.
# Experiments:
# Human TLR1/2 = molecular target: T1, Human TLR1/2 (Homo sapiens, UniProt O60603+Q15399); test: Human PBMC cell-based assay, Pam3CSK4 stimulus, IL-6 ELISA; details: Hu PBMC; ligand Pam3CSK4; analyte IL-6
# T1 construct: endogenous in cells; host or cells: primary human PBMC from healthy donor blood
# T1 sequence (Q15399 25-786): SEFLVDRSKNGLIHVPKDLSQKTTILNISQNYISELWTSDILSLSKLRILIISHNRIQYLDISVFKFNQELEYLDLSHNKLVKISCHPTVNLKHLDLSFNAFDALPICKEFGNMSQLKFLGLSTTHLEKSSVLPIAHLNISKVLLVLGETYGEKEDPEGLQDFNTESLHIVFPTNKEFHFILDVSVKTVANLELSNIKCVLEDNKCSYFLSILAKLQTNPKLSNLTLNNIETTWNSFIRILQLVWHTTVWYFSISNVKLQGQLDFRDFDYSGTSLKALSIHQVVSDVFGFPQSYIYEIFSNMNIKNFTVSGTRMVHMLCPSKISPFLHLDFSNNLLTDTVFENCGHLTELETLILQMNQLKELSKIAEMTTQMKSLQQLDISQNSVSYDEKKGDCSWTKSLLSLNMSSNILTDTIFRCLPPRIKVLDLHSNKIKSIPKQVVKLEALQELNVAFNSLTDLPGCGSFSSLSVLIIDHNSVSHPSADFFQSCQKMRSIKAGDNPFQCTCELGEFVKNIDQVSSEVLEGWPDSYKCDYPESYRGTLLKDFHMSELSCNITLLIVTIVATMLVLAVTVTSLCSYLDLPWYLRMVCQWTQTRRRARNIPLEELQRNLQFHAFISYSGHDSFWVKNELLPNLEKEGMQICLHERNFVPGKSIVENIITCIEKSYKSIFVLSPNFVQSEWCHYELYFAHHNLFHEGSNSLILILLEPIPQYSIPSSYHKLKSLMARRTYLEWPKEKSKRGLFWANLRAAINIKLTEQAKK
# T1 sequence (O60603 19-784 limits assumed): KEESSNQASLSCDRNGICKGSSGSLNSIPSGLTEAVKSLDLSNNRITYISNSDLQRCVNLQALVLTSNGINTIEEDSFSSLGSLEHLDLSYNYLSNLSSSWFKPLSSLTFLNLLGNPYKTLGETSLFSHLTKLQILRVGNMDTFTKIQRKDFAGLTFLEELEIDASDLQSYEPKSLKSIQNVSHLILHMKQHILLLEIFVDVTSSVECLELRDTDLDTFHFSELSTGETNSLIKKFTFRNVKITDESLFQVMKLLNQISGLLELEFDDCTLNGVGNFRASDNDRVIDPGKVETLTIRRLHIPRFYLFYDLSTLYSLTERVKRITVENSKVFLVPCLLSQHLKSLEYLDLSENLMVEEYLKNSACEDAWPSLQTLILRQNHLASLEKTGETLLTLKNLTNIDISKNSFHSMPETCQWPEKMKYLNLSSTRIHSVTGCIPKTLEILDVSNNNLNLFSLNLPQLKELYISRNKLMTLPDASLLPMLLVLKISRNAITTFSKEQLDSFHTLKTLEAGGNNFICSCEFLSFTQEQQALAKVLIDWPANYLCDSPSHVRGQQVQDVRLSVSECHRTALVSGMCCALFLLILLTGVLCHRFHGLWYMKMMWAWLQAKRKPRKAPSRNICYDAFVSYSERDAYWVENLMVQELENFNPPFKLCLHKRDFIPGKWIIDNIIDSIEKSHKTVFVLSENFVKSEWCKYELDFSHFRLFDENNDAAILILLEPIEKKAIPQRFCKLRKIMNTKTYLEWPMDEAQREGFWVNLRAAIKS
# Experimental: Human peripheral blood mononuclear cells (PBMC) were isolated from freshly-drawn heparinized (10 USP units/ml, Hospira, Lakeforest, Ill.) healthy donor whole blood by density gradient (Histopaque® 1077, Sigma, Inc., St. Louis, Mo.). Briefly, 25 ml blood was diluted with 15 ml PBS (without Ca^2+, Mg^2+) in a 50 ml conical tube, and 12 ml Histopaque was underlaid using a spinal needle. Tubes were centrifuged for 45 minutes at 1200 rpm (350×g), and PBMC were collected from the buffy coat. Cells were then washed twice in PBS, and red blood cells were lysed by suspension in 5 ml ammonium chloride solution (1× Red Blood Cell Lysis Buffer, eBioscience) for 5 minutes at room temperature. […]
# Antagonist compounds solubilized and serial diluted in 100% DMSO were added in triplicate to cells to yield a final concentration of 0.1% DMSO (v/v). […] Cell culture supernatants were collected, and levels of various human cytokines were assessed as indicated by standard ELISA procedure according to the manufacturer's recommended protocol (BD Biosciences, Inc., San Diego, Calif.).
# DBA/1 mice = test: Pristane: DBA/1 strain lupus disease model; type: in vivo, mouse
# Experimental: Figure Legend: Female DBA/1 mice at 10-11 weeks of age were given an intraperitoneal injection of 0.5 ml pristane or PBS. Once-a-day oral dosing with Vehicle (Veh; 0.5% methyl-cellulose) or 300 mg/kg ER-892887 was begun 3.5 months after pristane injection for a total of 3 months treatment. (A) Mice were euthanized after 3 months of compound treatment, and anti-dsDNA and anti-RiboP titers were measured in blood plasma samples by ELISA (statistical significance determined by Mann-Whitney test). (B) Arthritis development was assessed monthly by visual scoring. (C) The expression of IFN-regulated genes in whole blood was measured by a qPCR panel after 3 months of treatment, and an IFN gene signature score was calculated (see Pharmacology Materials and Methods section for details regarding IFN score calculation).
# Figure Legend: Female DBA/1 mice at 11-12 weeks of age were given an intraperitoneal injection of 0.5 ml of pristane or PBS. Once-a-day oral dosing with Vehicle (Veh; 0.5% methyl-cellulose) or 33, 100, or 300 mg/kg ER-892887 was begun 2 months after pristane injection for a total of 3 months treatment. Mice were euthanized after 3 months of compound treatment, and anti-dsDNA (A), -RiboP (B), -Sm/nRNP (C), and -Histone (D) titers were measured in blood plasma samples by ELISA (statistical significance determined by Mann-Whitney test). (E) Summary of mortality observed in the study during 3 months of compound treatment. (F) The expression of IFN-regulated genes in whole blood was measured by a qPCR panel at the last time point for Vehicle and 300 mg/kg ER-892887 treated mice, and an IFN gene signature score was calculated (see Pharmacology Materials and Methods section for details regarding IFN score calculation).
# Figure Legend: Female DBA/1 mice at 11 weeks of age were given an intraperitoneal injection of 0.5 ml pristane or PBS. Once-a-day oral dosing with Vehicle (Veh; 0.5% methyl-cellulose) or 300 mg/kg ER-892887, 100 mg/kg hydroxychloroquine, 1 mg/kg prednisolone or 100 mg/kg mycophenolate was begun 2 months after pristane injection and continued for 3 months of treatment. (A) At the end of the 3 month treatment arthritis development was assessed by visual scoring of swelling and inflammation. (B) Mice were euthanized after 3 months of compound treatment, and anti-dsDNA, anti-histone, anti-Sm/RNP and anti-RiboP titers were measured in blood plasma samples by ELISA (statistical significance determined by Mann-Whitney test). ELISA values falling above or below the range of the standard curve were assigned a value equal to the highest or lowest valid measurement, as appropriate. (C) The expression of IFN-regulated genes in whole blood was measured by a qPCR panel after 3 months of treatment. […] (D) IFN scores of genes regulated by pristane in this experiment are shown.
# FIG. 14 presents the effect of compound ER-892887 on arthritis and autoantibodies in the Pristane: DBA/1 strain lupus disease model. Figure Legend: Female DBA/1 mice at 10 weeks of age were given an intraperitoneal injection of 0.5 ml pristane or PBS. At 22 weeks of age, mice were randomized into groups with equivalent median anti-dsDNA titers and treated with Vehicle (Veh; 0.5% methyl-cellulose) alone or 300 mg/kg ER-892887 once-a-day orally (QD PO). Arthritis symptoms (swelling and inflammation) were recorded monthly by blinded observers. All mice were sacrificed at 34 weeks of age (12 weeks of treatment) and blood plasma autoantibody titers were determined by ELISA. Prior to termination paws were x-rayed and scored for bone damage and erosions by two blinded analysts. (A) Top—Arthritis scores were calculated monthly in vehicle and compound dosed-groups. (A) Bottom—X-ray scores were calculated after three months of treatment. (B) Autoantibody titers were measured in terminal blood plasma samples by ELISA (statistical significance determined by Mann-Whitney test). […]
structure (smiles),measurement,setting,value
"COc1ccc([C@@H]2C[C@H](C(F)(F)F)n3nc(-c4ccc(C(=O)N5CCNCC5)cc4)cc3N2)cc1OC [ER-892887, (4-((5S,7R)-5-(3,4-dimethoxyphenyl)-7-(trifluoromethyl)-4,5,6,7-tetrahydropyrazolo[1,5-a]pyrimidin-2-yl)phenyl)(piperazin-1-yl)methanone]",IC50,Human TLR1/2,> 10 µM
same,IFN gene signature score,DBA/1 mice,reduction
same,RNA-related reactivity such as anti-RiboP titers,DBA/1 mice,particularly robust impact
same,arthritis severity,DBA/1 mice,reduced arthritis severity
same,"interferon gene signature score, comparison with three commonly used lupus treatments",DBA/1 mice,suppressed the interferon gene signature score significantly
same,various auto-antibodies,DBA/1 mice,suppressed
same,suppression of autoantibodies compared with hydroxychloroquine or prednisolone,DBA/1 mice; at the doses tested,better
same,whole blood interferon-driven gene expression,DBA/1 mice; qPCR panel,reduction; also recorded: suppressed
